Experimental data from patent US10955409B2, “Method for the identification of sensory neuron subtypes in ex vivo preparations” (AnaBios Corporation, priority 2017, dated 2021).

Tested on: Aδ- and C-type neurons (human DRG neurons)
Assay: Electric field stimulation (EFS) live cell calcium imaging of human DRG neurons
Format: cell-based
Settings: high voltage 15V/cm supra-threshold stimulation
Procedure: DRGs from the first thoracic vertebra (T1) through the first sacral vertebra (S1) were used in the present study. Human DRG neurons where isolated from organ donors for which full legal and ethical consent had been obtained. The DRGs were stripped of connective tissue and enzymatically digested at 37° C. for 2 h using AnaBios' proprietary enzyme mixture. Samples were then centrifuged for 2 min at 200×g, supernatant was gently removed, and tissue was washed 4 times, followed by resuspension in DMEM/F12 (Lonza) containing 1% horse serum (Thermo Fisher Scientific). Ganglia were mechanically dissociated by gentle trituration through the fire-polished tip of a sterile glass Pasteur pipette. […] Cells were maintained in culture at 37° C. with 5% CO2 in DMEM/F12 supplemented with 10% horse serum (Thermo Fisher Scientific), 2 mM glutamine, 25 ng/mL hNGF (Cell Signaling Technology, Danvers, Mass.), 25 ng/mL GDNF (Peprotech), and penicillin/streptomycin (Thermo Fisher Scientific). Half of the culture media was replaced with fresh media every 3 days.
Cells were loaded with 3 M Fluo-8-AM (AAT Bioquest) containing 0.1% Pluronic F-127 (Sigma) for 20 min. at room temperature. Extracellular solution contained in (mM): 145 NaCl, 3 KCl, 2 CaCl2), 1 MgCl2, 10 HEPES, 10 glucose adjusted to pH 7.4 with NaOH. […]

CCN(CC)CC(=O)Nc1c(C)cccc1C [lidocaine]
sensitivity of the maximal response to EFS to lidocaine: exhibited sensitivity
